Assay results: patent publication US20260078120A1, “SUBSTITUTED PYRIDOPYRIMIDINONES” (MIRATI THERAPEUTICS, INC., priority 2022, published 2026)
pIC50: −log10 of the molar value.

What was measured:
[1] = tested on: T47D (PI3Kα H1047R mutant) cells; experiment: CellTiter-Glo 2.0 luminescent cell viability assay, 72 hours, T47D cells; assay type: cell-based; conditions: Homo sapiens, T47D, 72 h, T47D (PI3Kα H1047R mutant) cells, CellTiter-Glo, approximately 72 hours; read-out: T47D (H1047R mutant) Viability IC50
Description: This Example illustrates that exemplary compounds of the present invention decrease the viability of cells.
(§1) The ability of a compound of Formula (I) to decrease the viability of cells was measured using CellTiter-Glo 2.0 (CTG) Luminescent Cell Viability Assay (#G9241) obtained from Promega (Madison, WI).
To prepare assay plates for viability assays, cells were trypsinized, resuspended in fresh media, and viable cells were counted utilizing trypan blue exclusion. T47D, SKBR3, or MKN1 cells were seeded at 1000 cells in 30 μl per well in a solid white flat bottom 384 cell culture plate (Perkin Elmer #6007680) and incubated at 37° C. overnight.
(§2) Assay day 1, cells were dosed using an Echo Liquid Handler (Beckman Coulter) with compounds at a 10 um starting concentration and serially diluted (1:4) for a total of 10 concentrations. Cells were incubated for approximately 72 hours with the compounds (solubilized in DMSO) at 37° C. After 72 hours of treatment, cell plates were equilibrated to room temperature before adding 15 μl of CTG to each well, plates were then covered in aluminum foil to protect from light, incubated at room temperature for 30 minutes on a microtiter plate shaker, and luminescence readings were collected using a CLARIOstar microplate reader (BMG Labtech, Germany). Percent of vehicle control values were plotted as log (inhibitor) vs. response-Variable slope (four parameters) for curve fitting and IC50 values were determined using XLfit.

[2] = tested on: SKBR3 (PI3Kα wild type) cells; experiment: CellTiter-Glo 2.0 luminescent cell viability assay, 72 hours, SKBR3 cells; assay type: cell-based; conditions: Homo sapiens, SK-BR-3, 72 h, SKBR3 (PI3Kα wild type) cells, CellTiter-Glo, approximately 72 hours; read-out: SKBR3 (WT) Viability IC50
Description: as §1
To prepare assay plates for viability assays, cells were trypsinized, resuspended in fresh media, and viable cells were counted utilizing trypan blue exclusion.
as §2

## Cc1cc([C@@H](C)Nc2ccccc2C(=O)O)c2nc(N3CCC(C4CCC4)CC3)c(C)c(=O)n2c1 [Example 11-20, (R)-2-((1-(2-(4-cyclobutylpiperidin-1-yl)-3,7-dimethyl-4-oxo-4H-pyrido[1,2-a]pyrimidin-9-yl)ethyl)amino)benzoic acid]
[1]
  pIC50: 6.50
[2]
  pIC50: < 5.00

## Cc1cc([C@@H](C)Nc2ccccc2C(=O)O)c2nc(N3CC(c4cccnc4)C3)c(C)c(=O)n2c1 [Example 11-21, (R)-2-((1-(3,7-dimethyl-4-oxo-2-(3-(pyridin-3-yl)azetidin-1-yl)-4H-pyrido[1,2-a]pyrimidin-9-yl)ethyl)amino)benzoic acid]
[1]
  pIC50: 6.62
[2]
  pIC50: < 5.00

## Cc1cc([C@@H](C)Nc2ccccc2C(=O)O)c2nc(N3CC4CC5CC4C3C5O)c(C)c(=O)n2c1 (stereo partly drawn) [Example 11-22, 2-(((1R)-1-(2-(6-hydroxyhexahydro-3,5-methanocyclopenta[b]pyrrol-1(2H)-yl)-3,7-dimethyl-4-oxo-4H-pyrido[1,2-a]pyrimidin-9-yl)ethyl)amino)benzoic acid]
[1]
  pIC50: 6.72
[2]
  pIC50: < 5.00

## Cc1cc([C@@H](C)Nc2ccccc2C(=O)O)c2nc(N3CCC(N4CCC(F)(F)CC4)CC3)c(C)c(=O)n2c1 [Example 11-23, (R)-2-((1-(2-(4,4-difluoro-[1,4′-bipiperidin]-1′-yl)-3,7-dimethyl-4-oxo-4H-pyrido[1,2-a]pyrimidin-9-yl)ethyl)amino)benzoic acid]
[1]
  pIC50: 6.86
[2]
  pIC50: < 5.00

## Cc1cc([C@@H](C)Nc2ccccc2C(=O)O)c2nc(N3CC4CC(C)(C)C4C3)c(C)c(=O)n2c1 (stereo partly drawn) [Example 11-24, 2-(((1R)-1-(2-(6,6-dimethyl-3-azabicyclo[3.2.0]heptan-3-yl)-3,7-dimethyl-4-oxo-4H-pyrido[1,2-a]pyrimidin-9-yl)ethyl)amino)benzoic acid]
[1]
  pIC50: 6.91
[2]
  pIC50: < 5.00

## Cc1cc([C@@H](C)Nc2ccccc2C(=O)O)c2nc(N3CC4(C3)CC3(CCC3)C4)c(C)c(=O)n2c1 [Example 11-26, (R)-2-((1-(2-(2-azadispiro[3.1.3^6.1^4]decan-2-yl)-3,7-dimethyl-4-oxo-4H-pyrido[1,2-a]pyrimidin-9-yl)ethyl)amino)benzoic acid]
[1]
  pIC50: 6.67
[2]
  pIC50: < 5.00

## Cc1cc([C@@H](C)Nc2ccccc2C(=O)O)c2nc(N3CC4CCCCCCC4C3)c(C)c(=O)n2c1 (stereo partly drawn) [Example 11-27, 2-(((1R)-1-(2-(decahydro-2H-cycloocta[c]pyrrol-2-yl)-3,7-dimethyl-4-oxo-4H-pyrido[1,2-a]pyrimidin-9-yl)ethyl)amino)benzoic acid]
[1]
  pIC50: 5.80
[2]
  pIC50: < 5.00

## Cc1cc([C@@H](C)Nc2ccccc2C(=O)O)c2nc(N3CC(O)C4(CCC4)C3)c(C)c(=O)n2c1 (stereo partly drawn) [Example 11-28, 2-(((1R)-1-(2-(8-hydroxy-6-azaspiro[3.4]octan-6-yl)-3,7-dimethyl-4-oxo-4H-pyrido[1,2-a]pyrimidin-9-yl)ethyl)amino)benzoic acid]
[1]
  pIC50: 6.73
[2]
  pIC50: < 5.00

## Cc1cc([C@@H](C)Nc2ccccc2C(=O)O)c2nc(N3C4CC5CC(C4)CC3C5)c(C)c(=O)n2c1 [Example 11-29, (R)-2-((1-(2-(2-azaadamantan-2-yl)-3,7-dimethyl-4-oxo-4H-pyrido[1,2-a]pyrimidin-9-yl)ethyl)amino)benzoic acid]
[1]
  pIC50: 6.61
[2]
  pIC50: < 5.00

## Cc1cc([C@@H](C)Nc2ccccc2C(=O)O)c2nc(N3CC4CCC3CC4O)c(C)c(=O)n2c1 (stereo partly drawn) [Example 11-30, 2-(((1R)-1-(2-(5-hydroxy-2-azabicyclo[2.2.2]octan-2-yl)-3,7-dimethyl-4-oxo-4H-pyrido[1,2-a]pyrimidin-9-yl)ethyl)amino)benzoic acid]
[1]
  pIC50: 6.40
[2]
  pIC50: < 5.00

## Cc1cc([C@@H](C)Nc2ccccc2C(=O)O)c2nc(N3CC(O)C4CCCCC43)c(C)c(=O)n2c1 (stereo partly drawn) [Example 11-31, 2-(((1R)-1-(2-(3-hydroxyoctahydro-1H-indol-1-yl)-3,7-dimethyl-4-oxo-4H-pyrido[1,2-a]pyrimidin-9-yl)ethyl)amino)benzoic acid]
[1]
  pIC50: 6.48
[2]
  pIC50: < 5.00

## Cc1cc([C@@H](C)Nc2ccccc2C(=O)O)c2nc(N3CC4CC3CC4c3ccccc3)c(C)c(=O)n2c1 (stereo partly drawn) [Example 11-32, 2-(((1R)-1-(3,7-dimethyl-4-oxo-2-(5-phenyl-2-azabicyclo[2.2.1]heptan-2-yl)-4H-pyrido[1,2-a]pyrimidin-9-yl)ethyl)amino)benzoic acid]
[1]
  pIC50: 6.52
[2]
  pIC50: < 5.00

## Cc1cc([C@@H](C)Nc2ccccc2C(=O)O)c2nc(N3CC4C5CCC5C4C3)c(C)c(=O)n2c1 (stereo partly drawn) [Example 11-33, 2-(((1R)-1-(3,7-dimethyl-4-oxo-2-(8-azatricyclo[4.3.0.0^2,5]nonan-8-yl)-4H-pyrido[1,2-a]pyrimidin-9-yl)ethyl)amino)benzoic acid]
[1]
  pIC50: 6.51
[2]
  pIC50: < 5.00

## Cc1cc([C@@H](C)Nc2ccccc2C(=O)O)c2nc(N3CC4CC(C3)C4(C)O)c(C)c(=O)n2c1 (stereo partly drawn) [Example 11-34, 2-(((1R)-1-(2-(6-hydroxy-6-methyl-3-azabicyclo[3.1.1]heptan-3-yl)-3,7-dimethyl-4-oxo-4H-pyrido[1,2-a]pyrimidin-9-yl)ethyl)amino)benzoic acid]
[1]
  pIC50: 6.67
[2]
  pIC50: < 5.00

## Cc1cc([C@@H](C)Nc2ccccc2C(=O)O)c2nc(N3CC4C5CCC(C5O)C4C3)c(C)c(=O)n2c1 (stereo partly drawn) [Example 11-35, 2-(((1R)-1-(2-(8-hydroxyoctahydro-2H-4,7-methanoisoindol-2-yl)-3,7-dimethyl-4-oxo-4H-pyrido[1,2-a]pyrimidin-9-yl)ethyl)amino)benzoic acid]
[1]
  pIC50: 6.87
[2]
  pIC50: < 5.00

## [2H]C12CC(C3CCN(c4nc5c([C@@H](C)Nc6ccccc6C(=O)O)cc(C)cn5c(=O)c4C)CC3)(C1)C2 [Example 11-36, (R)-2-((1-(2-(4-(bicyclo[1.1.1]pentan-1-yl-3-d)piperidin-1-yl)-3,7-dimethyl-4-oxo-4H-pyrido[1,2-a]pyrimidin-9-yl)ethyl)amino)benzoic acid]
[1]
  pIC50: 6.41
[2]
  pIC50: < 5.00

## Cc1cc([C@@H](C)Nc2ccccc2C(=O)O)c2nc(N3CCN(c4c(C)cccc4C)CC3)c(C)c(=O)n2c1 [Example 11-37, (R)-2-((1-(2-(4-(2,6-dimethylphenyl)piperazin-1-yl)-3,7-dimethyl-4-oxo-4H-pyrido[1,2-a]pyrimidin-9-yl)ethyl)amino)benzoic acid]
[1]
  pIC50: 6.09
[2]
  pIC50: < 5.00

## Cc1cc([C@@H](C)Nc2ccccc2C(=O)O)c2nc(N3Cc4cccc(F)c4C3)c(C)c(=O)n2c1 [Example 11-38, (R)-2-((1-(2-(4-fluoroisoindolin-2-yl)-3,7-dimethyl-4-oxo-4H-pyrido[1,2-a]pyrimidin-9-yl)ethyl)amino)benzoic acid]
[1]
  pIC50: 6.71
[2]
  pIC50: < 5.00

## COc1ccc(C2CCN(c3nc4c([C@@H](C)Nc5ccccc5C(=O)O)cc(C)cn4c(=O)c3C)CC2)cc1 [Example 11-39, (R)-2-((1-(2-(4-(4-methoxyphenyl)piperidin-1-yl)-3,7-dimethyl-4-oxo-4H-pyrido[1,2-a]pyrimidin-9-yl)ethyl)amino)benzoic acid]
[1]
  pIC50: 6.94
[2]
  pIC50: < 5.00

## Cc1cc([C@@H](C)Nc2ccccc2C(=O)O)c2nc(N3CCN(CC(F)F)CC3)c(C#N)c(=O)n2c1 [Example 11-42, (R)-2-((1-(3-cyano-2-(4-(2,2-difluoroethyl)piperazin-1-yl)-7-methyl-4-oxo-4H-pyrido[1,2-a]pyrimidin-9-yl)ethyl)amino)benzoic acid]
[1]
  pIC50: 6.76
[2]
  pIC50: < 5.00
